Measured values taken from patent US9416115B2, “Fused heterocyclic compounds as ion channel modulators” (Gilead Sciences, Inc., priority 2013, dated 2016).
Read-outs that look alike come from different tables or passages of the source.

Assays:
[1] = molecular target: T1, wild-type human cardiac sodium channel, hNav1.5 (Homo sapiens, UniProt Q14524); experiment: Late INa screening assay (QPatch whole cell patch clamp, Tefluthrin-induced late current); assay type: cell-based; conditions: 1 uM; HEK293 hNav1.5; percent block of late INa
T1 sequence (Q14524 whole entry): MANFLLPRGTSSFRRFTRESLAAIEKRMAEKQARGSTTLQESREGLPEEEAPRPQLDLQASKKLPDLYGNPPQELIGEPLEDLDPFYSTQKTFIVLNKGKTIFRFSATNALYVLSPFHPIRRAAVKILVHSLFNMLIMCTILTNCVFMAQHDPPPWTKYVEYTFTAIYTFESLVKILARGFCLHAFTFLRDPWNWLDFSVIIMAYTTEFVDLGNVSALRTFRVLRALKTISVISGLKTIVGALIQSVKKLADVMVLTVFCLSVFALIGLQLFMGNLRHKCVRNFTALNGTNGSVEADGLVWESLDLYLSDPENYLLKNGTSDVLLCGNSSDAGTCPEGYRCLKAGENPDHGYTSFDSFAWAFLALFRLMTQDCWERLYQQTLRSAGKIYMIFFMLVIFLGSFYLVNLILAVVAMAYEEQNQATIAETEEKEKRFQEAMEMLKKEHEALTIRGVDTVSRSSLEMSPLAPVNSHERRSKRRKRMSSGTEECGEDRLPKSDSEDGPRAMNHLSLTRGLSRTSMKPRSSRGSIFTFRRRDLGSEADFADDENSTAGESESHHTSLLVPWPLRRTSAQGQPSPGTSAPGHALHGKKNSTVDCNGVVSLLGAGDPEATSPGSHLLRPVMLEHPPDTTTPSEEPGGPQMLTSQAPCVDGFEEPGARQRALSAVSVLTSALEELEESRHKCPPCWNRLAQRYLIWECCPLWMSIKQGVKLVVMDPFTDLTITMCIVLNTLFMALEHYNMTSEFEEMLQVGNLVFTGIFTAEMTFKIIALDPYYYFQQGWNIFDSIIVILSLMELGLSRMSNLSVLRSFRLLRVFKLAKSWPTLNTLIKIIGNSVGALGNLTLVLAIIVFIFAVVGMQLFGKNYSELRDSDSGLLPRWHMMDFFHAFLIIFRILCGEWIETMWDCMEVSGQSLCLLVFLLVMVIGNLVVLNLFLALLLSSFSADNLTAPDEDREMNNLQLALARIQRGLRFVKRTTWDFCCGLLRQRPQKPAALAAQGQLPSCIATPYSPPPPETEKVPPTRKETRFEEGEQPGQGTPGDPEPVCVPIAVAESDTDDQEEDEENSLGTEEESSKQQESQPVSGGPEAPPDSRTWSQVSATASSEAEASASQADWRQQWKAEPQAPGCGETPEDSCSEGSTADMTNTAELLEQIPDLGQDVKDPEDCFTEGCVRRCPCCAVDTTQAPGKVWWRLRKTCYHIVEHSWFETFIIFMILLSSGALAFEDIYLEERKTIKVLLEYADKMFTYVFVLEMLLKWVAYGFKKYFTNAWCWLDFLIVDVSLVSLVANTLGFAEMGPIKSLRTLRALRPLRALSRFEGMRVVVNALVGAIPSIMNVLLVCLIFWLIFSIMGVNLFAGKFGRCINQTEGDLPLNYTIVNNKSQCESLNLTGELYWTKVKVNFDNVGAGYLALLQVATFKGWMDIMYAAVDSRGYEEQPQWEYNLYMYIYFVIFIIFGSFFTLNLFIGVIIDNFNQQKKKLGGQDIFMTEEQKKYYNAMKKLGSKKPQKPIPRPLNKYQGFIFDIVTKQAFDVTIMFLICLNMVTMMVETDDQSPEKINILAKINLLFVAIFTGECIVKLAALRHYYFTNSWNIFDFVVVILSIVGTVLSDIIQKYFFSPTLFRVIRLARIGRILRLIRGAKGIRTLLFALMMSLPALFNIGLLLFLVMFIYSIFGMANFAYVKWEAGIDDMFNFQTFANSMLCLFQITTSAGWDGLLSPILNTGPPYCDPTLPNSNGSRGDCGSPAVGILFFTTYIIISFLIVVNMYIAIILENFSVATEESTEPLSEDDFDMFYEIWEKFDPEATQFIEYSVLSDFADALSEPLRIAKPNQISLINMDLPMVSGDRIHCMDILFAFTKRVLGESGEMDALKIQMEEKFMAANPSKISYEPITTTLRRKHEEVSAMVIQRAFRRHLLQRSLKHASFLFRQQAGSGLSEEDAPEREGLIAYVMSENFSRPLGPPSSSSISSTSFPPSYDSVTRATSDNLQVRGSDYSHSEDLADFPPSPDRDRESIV
Procedure, shortened: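 HEK293 cells stably expressing hNav1.5 without beta subunits were whole-cell patch clamped at 23-25 °C, stepping from −120 to −20 mV for 250 ms at 0.1 Hz. Late current (240–265 ms) was induced with 10 μM Tefluthrin, and compounds were added typically at 0.3 or 1 μM. Percent block was taken against 0 Na baseline with rundown correction.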

[2] = molecular target: T1, wild-type human cardiac sodium channel, hNav1.5; experiment: Peak INa screening assay (tonic block and use-dependent block); assay type: cell-based
Procedure, shortened: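 Whole-cell automated patch clamp, 23-25° C, on hNav1.5 alpha-only HEK293 cells with Na+ lowered to 40 mM by choline. Block measured after two additions of 1 or 3 μM compound and 200 s wait: tonic at 0.1 Hz, use-dependent at 50th pulse (−20 mV, 20 ms, 3 Hz) from −100 mV, relative to drug-free, rundown corrected.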

[3] = tonic block of Peak INa, 0.1 Hz, holding -100 mV, read-out: Peak TB 3 uM
[4] = use-dependent block of Peak INa, 3 Hz, pulse 50, read-out: Peak UDB 3 Hz 3 uM

Row | SMILES | inhibition at 1 µM [1] | inhibition at 3 µM [2, 3] | inhibition at 3 µM [2, 4]
1 | Cc1cc(-c2ccc(OC(F)(F)F)cc2)cc2c(OCCn3cncn3)noc12 [Example 89, 3-(2-(1H-1,2,4-triazol-1-yl)ethoxy)-7-methyl-5-(4-(trifluoromethoxy)phenyl)benzo[d]isoxazole] | 33.2% | 5.7% | < 5%
2 | FC(F)(F)Oc1ccc(-c2ccc3onc(OCCN4CCOCC4)c3c2)cc1 [Example 78, 3-(2-morpholinoethoxy)-5-(4-(trifluoromethoxy)phenyl)benzo[d]isoxazole] | 47.1% | 38.7% | 19.5%
3 | FC(F)(F)Oc1ccc(-c2ccc3onc(OCCn4cnnc4)c3c2)cc1 [Example 63, 3-(2-(4H-1,2,4-triazol-4-yl)ethoxy)-5-(4-(trifluoromethoxy)phenyl)benzo[d]isoxazole] | 44.1% | 39% | 13.3%
4 | COc1cc(-c2ccc(C(F)(F)F)cc2F)cc2c(OCc3ncccn3)noc12 [Example 24, 5-(2-fluoro-4-(trifluoromethyl)phenyl)-7-methoxy-3-(pyrimidin-2-ylmethoxy)benzo[d]isoxazole] | 36% | 10% | < 5%
5 | Cc1nc(C)n(CCOc2noc3ccc(-c4ccc(OC(F)(F)F)cc4)cc23)n1 [Example 76, 3-(2-(3,5-dimethyl-1H-1,2,4-triazol-1-yl)ethoxy)-5-(4-(trifluoromethoxy)phenyl)benzo[d]isoxazole] | 55.2% | 49.9% | < 5%
6 | Cc1cccc(COc2noc3ccc(-c4ccc(OC(F)(F)F)cc4)cc23)n1 [Example 95, 3-((6-methylpyridin-2-yl)methoxy)-5-(4-(trifluoromethoxy)phenyl)benzo[d]isoxazole] | 51.7% | 6.4% | < 5%
7 | Cc1cc2onc(OCc3ncccn3)c2cc1-c1ccc(OC(F)(F)F)cc1 [Example 26, 6-methyl-3-(pyrimidin-2-ylmethoxy)-5-(4-(trifluoromethoxy)phenyl)benzo[d]isoxazole] | 49.6% | 27.8% | < 5%
8 | CCn1cncc1COc1noc2ccc(-c3ccc(OC(F)(F)F)cc3)cc12 [Example 49, 3-((1-ethyl-1H-imidazol-5-yl)methoxy)-5-(4-(trifluoromethoxy)phenyl)benzo[d]isoxazole] | 39.6% | 16.9% | < 5%
9 | O=C1CC[C@H](COc2noc3ccc(-c4ccc(OC(F)(F)F)cc4)cc23)N1 [Example 61, (R)-5-(((5-(4-(trifluoromethoxy)phenyl)benzo[d]isoxazol-3-yl)oxy)methyl)pyrrolidin-2-one] | 38.2% | 11.8% | 6.6%
10 | CC(Oc1noc2ccc(-c3ccc(OC(F)(F)F)cc3)cc12)c1ccccn1 (stereo not shown) [Example 98, 3-(1-(pyridin-2-yl)ethoxy)-5-(4-(trifluoromethoxy)phenyl)benzo[d]isoxazole] | 38.7% | 28.7% | < 5%
11 | Cn1cc(COc2noc3ccc(-c4ccc(OC(F)(F)F)cc4)cc23)nn1 [Example 44] | 48.2% | 29.9% | 10.4%
12 | Fc1cc2onc(OCc3ncccn3)c2cc1-c1ccc(OC(F)(F)F)cc1 [Example 31, 6-fluoro-3-(pyrimidin-2-ylmethoxy)-5-(4-(trifluoromethoxy)phenyl)benzo[d]isoxazole] | 43.9% | 18.5% | < 5%
13 | Cc1cc(-c2ccc(OC(F)(F)F)cc2)cc2c(OCc3ncco3)noc12 [Example 91, 7-methyl-3-(oxazol-2-ylmethoxy)-5-(4-(trifluoromethoxy)phenyl)benzo[d]isoxazole] | 53% | 33% | < 5%
14 | Cn1cncc1COc1noc2ccc(-c3ccc(OC(F)(F)F)cc3)cc12 [Example 50, 3-((1-methyl-1H-imidazol-5-yl)methoxy)-5-(4-(trifluoromethoxy)phenyl)benzo[d]isoxazole] | 32.5% |  | < 5%
15 | FC1(F)Oc2ccc(-c3ccc4onc(OCc5ncccn5)c4c3)cc2O1 [Example 30, 5-(2,2-difluorobenzo[d][1,3]dioxol-5-yl)-3-(pyrimidin-2-ylmethoxy)benzo[d]isoxazole] | 42.5% | 15.2% | < 5%
16 | COc1cc(-c2ccc(OC(F)(F)F)c(C)c2)cc2c(OCc3ncccn3)noc12 [Example 23, 7-methoxy-5-(3-methyl-4-(trifluoromethoxy)phenyl)-3-(pyrimidin-2-ylmethoxy)benzo[d]isoxazole] | 45.3% |  | < 5%
17 | CC1(COc2noc3ccc(-c4ccc(OC(F)(F)F)cc4)cc23)COC1 [Example 92, 3-((3-methyloxetan-3-yl)methoxy)-5-(4-(trifluoromethoxy)phenyl)benzo[d]isoxazole] | 36.3% | 9.6% | < 5%
18 | Fc1cc(C(F)(F)F)ccc1-c1cc2c(OCc3ncccn3)noc2cc1F [Example 33, 6-fluoro-5-(2-fluoro-4-(trifluoromethyl)phenyl)-3-(pyrimidin-2-ylmethoxy)benzo[d]isoxazole] | 35.5% | 20.9% | 5.1%
19 | OCC1(COc2noc3ccc(-c4ccc(OC(F)(F)F)cc4)cc23)COC1 [Example 97, (3-(((5-(4-(trifluoromethoxy)phenyl)benzo[d]isoxazol-3-yl)oxy)methyl)oxetan-3-yl)methanol] | 39% | 26.5% | < 5%
20 | Cc1cccnc1COc1noc2ccc(-c3ccc(OC(F)(F)F)cc3)cc12 [Example 93, 3-((3-methylpyridin-2-yl)methoxy)-5-(4-(trifluoromethoxy)phenyl)benzo[d]isoxazole] | 45.1% | 14.9% | < 5%
21 | FC(F)(F)Oc1ccc(-c2ccc3onc(OCc4cn[nH]c4)c3c2)cc1 [Example 45, 3-((1H-pyrazol-4-yl)methoxy)-5-(4-(trifluoromethoxy)phenyl)benzo[d]isoxazole] | 43.6% | 16.8% | 15.1%
22 | Cc1cc(OC(F)(F)F)ccc1-c1cc2c(OCc3ncccn3)noc2cc1C [Example 29, 6-methyl-5-(2-methyl-4-(trifluoromethoxy)phenyl)-3-(pyrimidin-2-ylmethoxy)benzo[d]isoxazole] | 46.4% | 8.1% | < 5%
23 | COc1ccnc(COc2noc3ccc(-c4ccc(OC(F)(F)F)cc4)cc23)c1 [Example 81, 3-((4-methoxypyridin-2-yl)methoxy)-5-(4-(trifluoromethoxy)phenyl)benzo[d]isoxazole] | 33.7% | 23.5% | < 5%
24 | FC(F)(F)Oc1ccc(-c2ccc3onc(OCc4cn5ccccc5n4)c3c2)cc1 [Example 51, 3-(imidazo[1,2-a]pyridin-2-ylmethoxy)-5-(4-(trifluoromethoxy)phenyl)benzo[d]isoxazole] | 38.8% | 12.3% | 7.7%
25 | Fc1cc2onc(OCc3ncccn3)c2cc1-c1ccc2c(c1)OC(F)(F)O2 [Example 35, 5-(2,2-difluorobenzo[d][1,3]dioxol-5-yl)-6-fluoro-3-(pyrimidin-2-ylmethoxy)benzo[d]isoxazole] | 33.6% | 17.4% | < 5%
26 | COc1cc(-c2ccc(OC(F)(F)F)cc2C)cc2c(OCc3ncccn3)noc12 [Example 25, 7-methoxy-5-(2-methyl-4-(trifluoromethoxy)phenyl)-3-(pyrimidin-2-ylmethoxy)benzo[d]isoxazole] | 41.3% | 12% | < 5%
27 | CC(COc1noc2ccc(-c3ccc(OC(F)(F)F)cc3)cc12)n1cncn1 (stereo not shown) [Example 77, 3-(2-(1H-1,2,4-triazol-1-yl)propoxy)-5-(4-(trifluoromethoxy)phenyl)benzo[d]isoxazole] | 49.2% | 34.6% | 8.3%
28 | Cc1nc(C)n(C(C)COc2noc3ccc(-c4ccc(OC(F)(F)F)cc4)cc23)n1 (stereo not shown) [Example 79, 3-(2-(3,5-dimethyl-1H-1,2,4-triazol-1-yl)propoxy)-5-(4-(trifluoromethoxy)phenyl)benzo[d]isoxazole] | 46.1% | 26% | < 5%
29 | Cc1cc(-c2cc3c(OCc4ncccn4)noc3cc2C)ccc1OC(F)(F)F [Example 27, 6-methyl-5-(3-methyl-4-(trifluoromethoxy)phenyl)-3-(pyrimidin-2-ylmethoxy)benzo[d]isoxazole] | 35.1% | 20.8% | < 5%
30 | CC(C)n1ccnc1COc1noc2ccc(-c3ccc(OC(F)(F)F)cc3)cc12 [Example 48, 3-((1-isopropyl-1H-imidazol-2-yl)methoxy)-5-(4-(trifluoromethoxy)phenyl)benzo[d]isoxazole] | 51.2% | 9.1% | 5.7%
